This passage reports IC50 results from patent US20240150321A1, “PYRAZOLYLSULFONAMIDE COMPOUNDS AND THEIR USE IN THERAPY” (HOTSPOT THERAPEUTICS, INC., priority 2022, published 2024).

Read-outs that look alike come from different tables or passages of the source. Some results are limits rather than exact numbers.

For test [1], the system named is NF-kB reporter in Jurkat cells. Kind of test: NF-kB reporter assay in Jurkat cells stimulated with aCD3/aCD28/PMA. The settings on record: Homo sapiens, read-out: NF-kB Reporter Assay IC50. The class given is cell-based. An outline of the steps: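 Luminescence (One-Glo) from the NF-kB reporter yielded IC50 values. Stimulation lasted 4 h at 37° C with aCD3, aCD28 and PMA (final 5, 5 and 0.03 […]), after 1 h compound pre-exposure of 25,000 Jurkat cells per well in serum-free RPMI.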
(In general: Reporter assays use an easily measured gene product as a stand-in for the process of interest.)

The target in a further test is Avi-tagged FL MALT-1 (Homo sapiens (Human), UniProt Q9UDY8). As to the kind of experiment: MALT-1 Fluorogenic Peptide Cleavage Assay (MALT1 inhibition assay). The class given is biochemical. The conditions noted are these: Ac-LRSR-AMC peptide substrate, 30 min pre-incubation, 90 min reaction at room temperature. The method, boiled down: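 Cleavage of Ac-LRSR-AMC, read as fluorescence at 342/441 nm after 90 min at room temperature, with substrate working stocks of 50 μM (Km) or 280 μM (10×Km). Enzyme, Avi-tagged full-length MALT-1 (40 nM stock), was first pre-incubated 30 min with compound in citrate/HEPES pH 6.89 buffer with TCEP, EDTA, CHAPS and 2% DMSO; IC50 fitted from normalised % inhibition.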
Chain of Avi-tagged FL MALT-1 (Q9UDY8 whole entry): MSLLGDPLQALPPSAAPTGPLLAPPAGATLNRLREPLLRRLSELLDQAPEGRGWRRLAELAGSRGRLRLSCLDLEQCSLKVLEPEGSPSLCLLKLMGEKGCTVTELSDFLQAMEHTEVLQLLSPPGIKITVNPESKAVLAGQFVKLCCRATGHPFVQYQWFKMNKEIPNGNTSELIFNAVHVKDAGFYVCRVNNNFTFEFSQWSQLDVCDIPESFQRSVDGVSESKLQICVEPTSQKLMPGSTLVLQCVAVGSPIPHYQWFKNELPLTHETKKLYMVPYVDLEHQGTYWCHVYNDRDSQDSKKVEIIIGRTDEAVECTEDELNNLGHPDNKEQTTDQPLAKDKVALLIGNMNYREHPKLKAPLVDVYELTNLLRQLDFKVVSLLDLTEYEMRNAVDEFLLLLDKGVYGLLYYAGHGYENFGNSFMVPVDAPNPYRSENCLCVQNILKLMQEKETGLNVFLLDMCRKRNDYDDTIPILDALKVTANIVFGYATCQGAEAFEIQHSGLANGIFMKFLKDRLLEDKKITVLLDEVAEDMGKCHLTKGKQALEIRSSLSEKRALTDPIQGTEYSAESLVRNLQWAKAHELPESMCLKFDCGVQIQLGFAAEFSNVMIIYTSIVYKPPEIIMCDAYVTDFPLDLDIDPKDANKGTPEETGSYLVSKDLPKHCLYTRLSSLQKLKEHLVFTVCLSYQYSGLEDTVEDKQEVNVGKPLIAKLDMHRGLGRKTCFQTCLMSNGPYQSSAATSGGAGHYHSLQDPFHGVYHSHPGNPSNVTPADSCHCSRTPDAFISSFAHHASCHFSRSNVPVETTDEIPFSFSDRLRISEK

Setting [2] is: Jurkat cells, 1 hr compound pre-incubation, aCD3/aCD28/PMA stimulation 4 hr, One-Glo readout.

One may read the IC50 as the concentration that inhibits the measured activity by half. As to `COc1ccc2cnn(C)c2c1NS(=O)(=O)c1cnn(-c2cc(N3CCC3)ccn2)c1` [Compound I-373, 1-(4-(azetidin-1-yl)pyridin-2-yl)-N-(6-methoxy-1-methyl-1H-indazol-7-yl)-1H-pyrazole-4-sulfonamide], the values for the IC50 (in test [1] (Jurkat); on Avi-tagged FL MALT-1) were less than 0.4 µM and no more than 0.4 µM, respectively.

For `COC1(c2ccnc(-n3cc(S(=O)(=O)Nc4cccc5cnn(C)c45)cn3)c2)CN(C)C1` [Compound I-252], the IC50 in test [1] (setting [2]) is less than 0.4 µM; against Avi-tagged FL MALT-1, greater than 2.5 µM.

As to `CCc1ccc2cnn(C)c2c1NS(=O)(=O)c1cnn(-c2ccnc(C)c2)c1` [Compound I-31, N-(6-Ethyl-1-Methyl-1H-Indazol-7-yl)-1-(2-Methylpyridin-4-yl)-1H-Pyrazole-4-Sulfonamide], the figures for the IC50 (in test [1] (setting [2]); at Avi-tagged FL MALT-1) were 0.4 to 1 µM and no more than 0.4 µM, respectively.

As for `[2H]C([2H])([2H])n1ncc2cnc(OC)c(NS(=O)(=O)c3cnn(-c4cc(C(F)(F)F)ccn4)c3)c21` [Compound I-352, N-(6-methoxy-1-(methyl-d3)-1H-pyrazolo[4,3-c]pyridin-7-yl)-1-(4-(trifluoromethyl)pyridin-2-yl)-1H-pyrazole-4-sulfonamide], the figures for the IC50 (in test [1] (setting [2]); at Avi-tagged FL MALT-1) were less than 0.4 µM and no more than 0.4 µM, respectively.

Take `COc1ccc2cnn(C)c2c1NS(=O)(=O)c1cnn(-c2cncc(C(F)(F)F)c2)c1` [Compound I-23, N-(6-Methoxy-1-Methyl-1H-Indazol-7-yl)-1-(5-(Trifluoromethyl)Pyridin-3-yl)-1H-Pyrazole-4-Sulfonamide]: the results for the IC50 (in test [1] (setting [2]); at Avi-tagged FL MALT-1) were less than 0.4 µM and no more than 0.4 µM, respectively.

For the compound `COc1ncc2cnn(C)c2c1NS(=O)(=O)c1cnn(-c2cc(C(C)O)ccn2)c1` (single isomer, unassigned) [Compound I-292, 1-(4-(1-hydroxyethyl)pyridin-2-yl)-N-(6-methoxy-1-methyl-1H-pyrazolo[4,3-c]pyridin-7-yl)-1H-pyrazole-4-sulfonamide], the IC50 (in test [1] (setting [2]); at Avi-tagged FL MALT-1) was 0.4 to 1 µM throughout.

In the case of `Cn1ncc2cccc(NS(=O)(=O)c3cnn(-c4cnn5c4COCCC5)c3)c21` [Compound I-447, 1-(7,8-Dihydro-4H,6H-Pyrazolo[5,1-C][1,4]Oxazepin-3-yl)-N-(1-Methyl-1H-Indazol-7-yl)-1H-Pyrazole-4-Sulfonamide], the IC50 in test [1] (setting [2]) was 0.4 to 1 µM; at Avi-tagged FL MALT-1, greater than 2.5 µM.

As to `C[C@@H]1CN(c2ccnc(-n3cc(S(=O)(=O)Nc4cccc5cnn(C)c45)cn3)c2)C(=O)O1` [Compound I-320], the half-inhibitory concentration (IC50) is less than 0.4 µM in test [1] (setting [2]) and greater than 2.5 µM against Avi-tagged FL MALT-1.

Take `Cn1ncc2cccc(NS(=O)(=O)c3cnn(-c4cc(C5=CCOCC5)ccn4)c3)c21` [Compound I-119, 1-(4-(3,6-Dihydro-2H-Pyran-4-yl)Pyridin-2-yl)-N-(1-Methyl-1H-Indazol-7-yl)-1H-Pyrazole-4-Sulfonamide]: the IC50 in test [1] (setting [2]) is less than 0.4 µM; against Avi-tagged FL MALT-1 it was greater than 2.5 µM.

As to `COc1ncc2cnn(C)c2c1NS(=O)(=O)c1cnn(-c2cc(C(C)(F)F)ccn2)c1` [Compound I-141, 1-(4-(1,1-Difluoroethyl)Pyridin-2-yl)-N-(6-Methoxy-1-Methyl-1H-Pyrazolo[4,3-C]Pyridin-7-yl)-1H-Pyrazole-4-Sulfonamide], the IC50 was less than 0.4 µM in test [1] (setting [2]) and no more than 0.4 µM at Avi-tagged FL MALT-1.

Take `COc1ncc2cnn(C)c2c1NS(=O)(=O)c1cnn(-c2cc(C(C)(C)C)ccn2)c1` [Compound I-127, 1-(4-(tert-butyl)pyridin-2-yl)-N-(6-methoxy-1-methyl-1H-pyrazolo[4,3-c]pyridin-7-yl)-1H-pyrazole-4-sulfonamide]: the results for the IC50 (in test [1] (setting [2]); at Avi-tagged FL MALT-1) were less than 0.4 µM and no more than 0.4 µM, respectively.

Take `Cn1ncc2ccc(C3CC3)c(NS(=O)(=O)c3cnn(-c4ccc(C(F)(F)F)cn4)c3)c21` [Compound I-20, N-(6-Cyclopropyl-1-Methyl-1H-Indazol-7-yl)-1-(5-(Trifluoromethyl)Pyridin-2-yl)-1H-Pyrazole-4-Sulfonamide]: the IC50 (in test [1] (setting [2]); against Avi-tagged FL MALT-1) was 1 to 2.5 µM throughout.

Regarding `CN(C)c1ccnc(-n2cc(S(=O)(=O)Nc3cccc4cnn(C)c34)cn2)c1` [Compound I-437, 1-[4-(dimethylamino)pyridin-2-yl]-N-(1-methylindazol-7-yl)pyrazole-4-sulfonamide], the IC50 in test [1] (setting [2]) was less than 0.4 µM; against Avi-tagged FL MALT-1, greater than 2.5 µM.

On to `CCc1ccc2cnn(C)c2c1NS(=O)(=O)c1cnn(-c2cc(Cl)ccn2)c1` [Compound I-36, 1-(4-Chloropyridin-2-yl)-N-(6-Ethyl-1-Methyl-1H-indazol-7-yl)-1H-Pyrazole-4-Sulfonamide], for which the half-inhibitory concentration (IC50) in test [1] (setting [2]) was less than 0.4 µM; at Avi-tagged FL MALT-1 it was no more than 0.4 µM.

As to `CCC(O)(CC)c1ccnc(-n2cc(S(=O)(=O)Nc3c(OC)ccc4cnn(C)c34)cn2)c1` [Compound I-279, 1-[4-(3-hydroxypentan-3-yl)pyridin-2-yl]-N-(6-methoxy-1-methylindazol-7-yl)pyrazole-4-sulfonamide], the IC50 (in test [1] (setting [2]); against Avi-tagged FL MALT-1) was 0.4 to 1 µM throughout.

Take `COCC(C)(C)c1ccnc(-n2cc(S(=O)(=O)Nc3cccc4cnn(C)c34)cn2)c1` [Compound I-481, 1-(4-(1-methoxy-2-methylpropan-2-yl)pyridin-2-yl)-N-(1-methyl-1H-indazol-7-yl)-1H-pyrazole-4-sulfonamide]: the IC50 in test [1] (setting [2]) was less than 0.4 µM; against Avi-tagged FL MALT-1, greater than 2.5 µM.

For `Cc1ccc2cnn(C)c2c1NS(=O)(=O)c1cnn(-c2cc(C(F)(F)F)ccn2)c1` [Compound I-60, N-(1,6-Dimethyl-1H-Indazol-7-yl)-1-(4-(Trifluoromethyl) Pyridin-2-yl)-1H-Pyrazole-4-Sulfonamide], the half-maximal inhibitory concentration (IC50) in test [1] (setting [2]) was less than 0.4 µM; on Avi-tagged FL MALT-1, no more than 0.4 µM.

Consider `COc1ccc2cnn(C)c2c1NS(=O)(=O)c1cnn(-c2cc(C3(F)CC(F)C3)ccn2)c1` (single isomer, unassigned) [Compound I-377, 1-(4-(1,3-difluorocyclobutyl)pyridin-2-yl)-N-(6-methoxy-1-methyl-1H-indazol-7-yl)-1H-pyrazole-4-sulfonamide], for which the concentration for half-maximal inhibition (IC50) in test [1] (setting [2]) is less than 0.4 µM; against Avi-tagged FL MALT-1, 0.4 to 1 µM.

In the case of `CC[C@@H](OC)c1ccnc(-n2cc(S(=O)(=O)Nc3c(OC)ccc4cnn(C)c34)cn2)c1` [Compound I-318, N-(6-methoxy-1-methylindazol-7-yl)-1-{4-[(1R)-1-methoxypropyl]pyridin-2-yl}pyrazole-4-sulfonamide], the IC50 in test [1] (setting [2]) is less than 0.4 µM; on Avi-tagged FL MALT-1, no more than 0.4 µM.
